Structures are written as SMILES. A value given as a limit tells only on which side of the number the result lay.

The IC50 is the point on the concentration scale where inhibition reaches its midpoint. One may read the MIC as the smallest concentration in the dilution series that meets the test's criterion for growth inhibition.

Chain of SHP1 (P29350 whole entry): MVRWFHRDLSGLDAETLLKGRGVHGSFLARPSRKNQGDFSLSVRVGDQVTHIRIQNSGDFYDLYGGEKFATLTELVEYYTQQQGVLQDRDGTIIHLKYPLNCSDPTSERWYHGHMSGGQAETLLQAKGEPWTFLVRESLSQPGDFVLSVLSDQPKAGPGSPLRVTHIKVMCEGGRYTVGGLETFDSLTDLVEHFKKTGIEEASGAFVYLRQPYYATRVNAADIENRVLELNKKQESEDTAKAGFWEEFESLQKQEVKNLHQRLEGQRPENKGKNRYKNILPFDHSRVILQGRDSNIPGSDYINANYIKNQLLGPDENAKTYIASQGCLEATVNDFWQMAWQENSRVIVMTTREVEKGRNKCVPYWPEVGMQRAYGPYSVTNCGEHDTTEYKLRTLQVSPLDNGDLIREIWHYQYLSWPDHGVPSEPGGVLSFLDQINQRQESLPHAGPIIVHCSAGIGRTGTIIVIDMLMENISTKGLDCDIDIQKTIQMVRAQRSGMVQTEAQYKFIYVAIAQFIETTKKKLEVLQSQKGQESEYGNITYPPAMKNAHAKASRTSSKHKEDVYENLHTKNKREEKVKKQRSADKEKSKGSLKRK

One data set has as its target SHP1 (Homo sapiens, UniProt P29350). The data set is described as follows: Protein phosphatase inhibition assay, SHP1.
Conditions: not given
Molecule `COc1cc2ccncc2c(O)c1Cc1c(O)cc(O)c2c1[C@@H](C)OC2` [Compound 9, Puniceusine I] came in with a half-maximal inhibitory concentration (IC50) of 41.8 µM.
Turning to `CCC(=O)c1c(C)c(O)c(Cc2c(OC)cc3ccncc3c2O)c(O)c1O` [Compound 10, Puniceusine J], the IC50 was above 200 µM.
`COc1cc2ccncc2c(O)c1Cc1c(O)c(OC)c2c(c1O)C(=O)O[C@H]2[C@@H](C)O` [Compound 11, Puniceusine K] returned a 50% inhibitory concentration (IC50) of 145 µM.
`CCc1cc(O)c(Cc2c(OC)cc3ccncc3c2O)c(=O)o1` [Compound 12, Puniceusine L]: half-maximal inhibition (IC50) required 117 µM.
Molecule `CCc1oc(=O)c(Cc2c(OC)cc3ccncc3c2O)c(O)c1C` [Compound 13, Puniceusine M] yielded an IC50 of 40.3 µM.
`CCCCC(CC)COC(=O)CC[n+]1ccc2cc(OC)c(C)c(O)c2c1` (stereo not drawn) [Compound 14, Puniceusine N] yielded a half-maximal inhibitory concentration (IC50) above 200 µM.

Still in this data set, the particulars now being: read-out: Inhibitory Effect against Phosphatases (IC50) SHP1.
As to `[Na+].[Na+].[Na+].[O]=[V]([O-])([O-])[O-]` [Na3VO4, reference compound], the half-maximal inhibitory concentration (IC50) was found to be 4.4 µM.

A further data set concerns the target T1, PTP1B (Homo sapiens, UniProt P18031).
T1 sequence (P18031 1-435): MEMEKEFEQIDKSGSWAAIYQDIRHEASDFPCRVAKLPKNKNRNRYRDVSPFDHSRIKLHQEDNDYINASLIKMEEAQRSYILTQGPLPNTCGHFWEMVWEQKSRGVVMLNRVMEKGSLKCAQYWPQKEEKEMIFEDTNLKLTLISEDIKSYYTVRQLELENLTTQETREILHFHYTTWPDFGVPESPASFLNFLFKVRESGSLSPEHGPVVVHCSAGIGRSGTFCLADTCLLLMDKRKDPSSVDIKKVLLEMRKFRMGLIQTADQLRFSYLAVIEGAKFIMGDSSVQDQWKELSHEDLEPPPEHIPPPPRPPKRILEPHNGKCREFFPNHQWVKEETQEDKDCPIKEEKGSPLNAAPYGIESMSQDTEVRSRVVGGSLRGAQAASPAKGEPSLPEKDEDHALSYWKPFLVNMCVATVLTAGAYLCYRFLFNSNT
The data set is described as follows: Protein phosphatase inhibition assay, PTP1B.
Conditions: not given
With `COc1cc2ccncc2c(O)c1Cc1c(O)cc(O)c2c1[C@@H](C)OC2` [Compound 9, Puniceusine I], the IC50 is 68.8 µM.
Take `CCC(=O)c1c(C)c(O)c(Cc2c(OC)cc3ccncc3c2O)c(O)c1O` [Compound 10, Puniceusine J]: the IC50 is above 200 µM.
Turning to `COc1cc2ccncc2c(O)c1Cc1c(O)c(OC)c2c(c1O)C(=O)O[C@H]2[C@@H](C)O` [Compound 11, Puniceusine K], the IC50 amounted to 190 µM.
On to `CCc1cc(O)c(Cc2c(OC)cc3ccncc3c2O)c(=O)o1` [Compound 12, Puniceusine L], for which half-maximal inhibition (IC50) was put at 170 µM.
Turning to `CCc1oc(=O)c(Cc2c(OC)cc3ccncc3c2O)c(O)c1C` [Compound 13, Puniceusine M], inhibition was half-maximal at 37.9 µM (IC50).
For `CCCCC(CC)COC(=O)CC[n+]1ccc2cc(OC)c(C)c(O)c2c1` (stereo not drawn) [Compound 14, Puniceusine N], the half-inhibitory concentration (IC50) is above 200 µM.

The target in the next data set is T2, TCPTP (Homo sapiens, UniProt P17706).
T2 sequence (P17706 1-415): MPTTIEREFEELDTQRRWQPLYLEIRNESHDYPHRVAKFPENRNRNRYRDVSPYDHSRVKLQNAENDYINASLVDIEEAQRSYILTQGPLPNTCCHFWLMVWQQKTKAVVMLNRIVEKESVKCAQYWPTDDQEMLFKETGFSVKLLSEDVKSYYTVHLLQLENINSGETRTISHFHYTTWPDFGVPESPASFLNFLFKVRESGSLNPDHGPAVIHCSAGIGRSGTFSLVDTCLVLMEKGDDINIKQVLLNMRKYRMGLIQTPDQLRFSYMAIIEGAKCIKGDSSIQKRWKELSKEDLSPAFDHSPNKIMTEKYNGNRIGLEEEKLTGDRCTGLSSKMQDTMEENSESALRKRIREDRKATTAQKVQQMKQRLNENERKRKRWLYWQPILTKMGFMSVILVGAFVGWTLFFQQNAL
The data set is described as follows: Protein phosphatase inhibition assay, TCPTP.
Conditions: not given
In turn, `COc1cc2ccncc2c(O)c1Cc1c(O)cc(O)c2c1[C@@H](C)OC2` [Compound 9, Puniceusine I] came in with a half-maximal inhibitory concentration (IC50) of 57.7 µM.
On the same count and under the same terms, the same measure for `CCC(=O)c1c(C)c(O)c(Cc2c(OC)cc3ccncc3c2O)c(O)c1O` [Compound 10, Puniceusine J]: above 200 µM; for `COc1cc2ccncc2c(O)c1Cc1c(O)c(OC)c2c(c1O)C(=O)O[C@H]2[C@@H](C)O` [Compound 11, Puniceusine K]: above 200 µM.
Molecule `CCc1cc(O)c(Cc2c(OC)cc3ccncc3c2O)c(=O)o1` [Compound 12, Puniceusine L] registered an IC50 above 200 µM.
On to `CCc1oc(=O)c(Cc2c(OC)cc3ccncc3c2O)c(O)c1C` [Compound 13, Puniceusine M], for which the IC50 was above 200 µM.
In turn, `CCCCC(CC)COC(=O)CC[n+]1ccc2cc(OC)c(C)c(O)c2c1` (stereo not drawn) [Compound 14, Puniceusine N] gave an IC50 above 200 µM.

Still in this data set, the particulars now being: read-out: Inhibitory Effect against Phosphatases (IC50) TCPTP.
Regarding `[Na+].[Na+].[Na+].[O]=[V]([O-])([O-])[O-]` [Na3VO4, reference compound], the IC50 was 2.4 µM.

The target in the next data set is T3, CD45 (Homo sapiens, UniProt P08575).
T3 sequence (P08575 26-1306): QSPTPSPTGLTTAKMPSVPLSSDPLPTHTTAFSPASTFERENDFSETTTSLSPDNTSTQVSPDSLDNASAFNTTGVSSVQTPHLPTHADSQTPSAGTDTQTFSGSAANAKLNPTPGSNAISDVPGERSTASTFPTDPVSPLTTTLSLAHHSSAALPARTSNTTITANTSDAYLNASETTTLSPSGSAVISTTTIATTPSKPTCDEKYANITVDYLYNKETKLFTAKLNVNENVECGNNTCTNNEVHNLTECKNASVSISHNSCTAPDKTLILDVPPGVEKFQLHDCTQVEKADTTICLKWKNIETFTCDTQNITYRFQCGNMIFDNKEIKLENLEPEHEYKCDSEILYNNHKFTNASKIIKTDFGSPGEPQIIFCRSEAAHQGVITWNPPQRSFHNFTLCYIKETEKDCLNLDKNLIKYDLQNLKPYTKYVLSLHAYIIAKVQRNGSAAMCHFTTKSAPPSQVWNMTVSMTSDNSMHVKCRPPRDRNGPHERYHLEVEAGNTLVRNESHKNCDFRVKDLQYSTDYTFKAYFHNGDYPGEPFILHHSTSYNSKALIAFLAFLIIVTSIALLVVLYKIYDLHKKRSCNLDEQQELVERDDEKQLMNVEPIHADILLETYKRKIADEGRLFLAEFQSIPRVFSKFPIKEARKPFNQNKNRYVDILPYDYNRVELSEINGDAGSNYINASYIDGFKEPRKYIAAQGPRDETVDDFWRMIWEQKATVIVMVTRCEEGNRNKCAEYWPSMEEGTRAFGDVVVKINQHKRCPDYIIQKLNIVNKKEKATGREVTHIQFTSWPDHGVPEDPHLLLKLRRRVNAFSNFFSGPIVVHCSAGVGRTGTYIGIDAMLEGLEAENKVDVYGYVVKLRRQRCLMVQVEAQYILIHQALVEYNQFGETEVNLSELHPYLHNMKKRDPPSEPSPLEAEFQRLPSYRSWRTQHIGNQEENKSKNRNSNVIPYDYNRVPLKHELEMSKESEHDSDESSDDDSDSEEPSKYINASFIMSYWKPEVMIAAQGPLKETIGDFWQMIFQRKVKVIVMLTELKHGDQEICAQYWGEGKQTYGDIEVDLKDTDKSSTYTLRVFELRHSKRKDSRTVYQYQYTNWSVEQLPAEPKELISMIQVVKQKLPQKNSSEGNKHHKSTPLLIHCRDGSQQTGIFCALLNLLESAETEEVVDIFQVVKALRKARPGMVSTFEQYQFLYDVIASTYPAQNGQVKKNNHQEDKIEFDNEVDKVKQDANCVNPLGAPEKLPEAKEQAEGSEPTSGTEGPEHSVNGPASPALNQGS
The data set is described as follows: Protein phosphatase inhibition assay, CD45.
Conditions: not given
For the molecule `COc1cc2ccncc2c(O)c1Cc1c(O)cc(O)c2c1[C@@H](C)OC2` [Compound 9, Puniceusine I], the IC50 worked out at 27.2 µM.
Molecule `CCC(=O)c1c(C)c(O)c(Cc2c(OC)cc3ccncc3c2O)c(O)c1O` [Compound 10, Puniceusine J] had an IC50 of 30.8 µM.
`COc1cc2ccncc2c(O)c1Cc1c(O)c(OC)c2c(c1O)C(=O)O[C@H]2[C@@H](C)O` [Compound 11, Puniceusine K]: the half-maximal inhibitory concentration (IC50) came out at 100 µM.
The same measure, in the same setting: the same measure for `CCc1cc(O)c(Cc2c(OC)cc3ccncc3c2O)c(=O)o1` [Compound 12, Puniceusine L]: 38.5 µM; for `CCc1oc(=O)c(Cc2c(OC)cc3ccncc3c2O)c(O)c1C` [Compound 13, Puniceusine M]: 11.1 µM.
`CCCCC(CC)COC(=O)CC[n+]1ccc2cc(OC)c(C)c(O)c2c1` (stereo not drawn) [Compound 14, Puniceusine N]: the half-maximal inhibitory concentration (IC50) turned out to be 200 µM.

The same data set, now with this note: read-out: Inhibitory Effect against Phosphatases (IC50) CD45.
As to `CC(=O)c1ccc(NC2=C(Cl)C(=O)c3ccccc3C2=O)cc1` [AACQ, 2-[(4-acetylphenyl)amino]-3-chloronaphthoquinone, reference compound], the IC50 worked out at 0.29 µM.

Test system in a further data set: not listed separately
Put plainly: Cytotoxicity by CCK-8 method. It counts as cell-based. The following applies: human, H1975 lung adenocarcinoma cells, read-out: Cytotoxicity (IC50) H1975 Cell (after 24 h). The procedure:
Cytotoxic activity was evaluated using human lung adenocarcinoma cell line H1975 by CCK-8 method. Briefly, each of the test compounds was dissolved in DMSO and further diluted to give final concentrations of 80, 40, 20, 10, 5, 2.5, and 1.25 µg/mL, respectively. H1975 cells (5 × 10^3 cells/plate) were seeded in 96-well plates and treated with compounds at the indicated concentration for 24 h, and then 10 μL CCK-8 reagent was added to each well, and the plates were incubated at 37 °C for another 4 h. Next, the optical density was measured at a wavelength of 450 nm with the Bio-Rad (Hercules, CA, USA) microplate reader. Dose–response curves were generated, and the IC50 values were calculated from the linear portion of log dose–response curves.
A general note: Tetrazolium dyes change colour on reduction, which living cells bring about.
`COc1cc2ccncc2c(O)c1Cc1c(O)cc(O)c2c1[C@@H](C)OC2` [Compound 9, Puniceusine I]: the IC50 at 24 h was above 80 µM.
Still for that read-out and setting: as for `CCC(=O)c1c(C)c(O)c(Cc2c(OC)cc3ccncc3c2O)c(O)c1O` [Compound 10, Puniceusine J], the figure is above 80 µM.
Consider `COc1cc2ccncc2c(O)c1Cc1c(O)c(OC)c2c(c1O)C(=O)O[C@H]2[C@@H](C)O` [Compound 11, Puniceusine K], for which the IC50 at 24 h is above 80 µM.
Take `CCc1cc(O)c(Cc2c(OC)cc3ccncc3c2O)c(=O)o1` [Compound 12, Puniceusine L]: the IC50 at 24 h is above 80 µM.
Consider `CCc1oc(=O)c(Cc2c(OC)cc3ccncc3c2O)c(O)c1C` [Compound 13, Puniceusine M], for which the IC50 at 24 h is above 80 µM.
Still for that read-out and setting: the same measure for `CCCCC(CC)COC(=O)CC[n+]1ccc2cc(OC)c(C)c(O)c2c1` (stereo not drawn) [Compound 14, Puniceusine N]: above 80 µM.

A further data set deals with LAR (Homo sapiens, UniProt P10586). The data set is described as follows: Protein phosphatase inhibition assay, LAR.
Chain of LAR (P10586 30-1907): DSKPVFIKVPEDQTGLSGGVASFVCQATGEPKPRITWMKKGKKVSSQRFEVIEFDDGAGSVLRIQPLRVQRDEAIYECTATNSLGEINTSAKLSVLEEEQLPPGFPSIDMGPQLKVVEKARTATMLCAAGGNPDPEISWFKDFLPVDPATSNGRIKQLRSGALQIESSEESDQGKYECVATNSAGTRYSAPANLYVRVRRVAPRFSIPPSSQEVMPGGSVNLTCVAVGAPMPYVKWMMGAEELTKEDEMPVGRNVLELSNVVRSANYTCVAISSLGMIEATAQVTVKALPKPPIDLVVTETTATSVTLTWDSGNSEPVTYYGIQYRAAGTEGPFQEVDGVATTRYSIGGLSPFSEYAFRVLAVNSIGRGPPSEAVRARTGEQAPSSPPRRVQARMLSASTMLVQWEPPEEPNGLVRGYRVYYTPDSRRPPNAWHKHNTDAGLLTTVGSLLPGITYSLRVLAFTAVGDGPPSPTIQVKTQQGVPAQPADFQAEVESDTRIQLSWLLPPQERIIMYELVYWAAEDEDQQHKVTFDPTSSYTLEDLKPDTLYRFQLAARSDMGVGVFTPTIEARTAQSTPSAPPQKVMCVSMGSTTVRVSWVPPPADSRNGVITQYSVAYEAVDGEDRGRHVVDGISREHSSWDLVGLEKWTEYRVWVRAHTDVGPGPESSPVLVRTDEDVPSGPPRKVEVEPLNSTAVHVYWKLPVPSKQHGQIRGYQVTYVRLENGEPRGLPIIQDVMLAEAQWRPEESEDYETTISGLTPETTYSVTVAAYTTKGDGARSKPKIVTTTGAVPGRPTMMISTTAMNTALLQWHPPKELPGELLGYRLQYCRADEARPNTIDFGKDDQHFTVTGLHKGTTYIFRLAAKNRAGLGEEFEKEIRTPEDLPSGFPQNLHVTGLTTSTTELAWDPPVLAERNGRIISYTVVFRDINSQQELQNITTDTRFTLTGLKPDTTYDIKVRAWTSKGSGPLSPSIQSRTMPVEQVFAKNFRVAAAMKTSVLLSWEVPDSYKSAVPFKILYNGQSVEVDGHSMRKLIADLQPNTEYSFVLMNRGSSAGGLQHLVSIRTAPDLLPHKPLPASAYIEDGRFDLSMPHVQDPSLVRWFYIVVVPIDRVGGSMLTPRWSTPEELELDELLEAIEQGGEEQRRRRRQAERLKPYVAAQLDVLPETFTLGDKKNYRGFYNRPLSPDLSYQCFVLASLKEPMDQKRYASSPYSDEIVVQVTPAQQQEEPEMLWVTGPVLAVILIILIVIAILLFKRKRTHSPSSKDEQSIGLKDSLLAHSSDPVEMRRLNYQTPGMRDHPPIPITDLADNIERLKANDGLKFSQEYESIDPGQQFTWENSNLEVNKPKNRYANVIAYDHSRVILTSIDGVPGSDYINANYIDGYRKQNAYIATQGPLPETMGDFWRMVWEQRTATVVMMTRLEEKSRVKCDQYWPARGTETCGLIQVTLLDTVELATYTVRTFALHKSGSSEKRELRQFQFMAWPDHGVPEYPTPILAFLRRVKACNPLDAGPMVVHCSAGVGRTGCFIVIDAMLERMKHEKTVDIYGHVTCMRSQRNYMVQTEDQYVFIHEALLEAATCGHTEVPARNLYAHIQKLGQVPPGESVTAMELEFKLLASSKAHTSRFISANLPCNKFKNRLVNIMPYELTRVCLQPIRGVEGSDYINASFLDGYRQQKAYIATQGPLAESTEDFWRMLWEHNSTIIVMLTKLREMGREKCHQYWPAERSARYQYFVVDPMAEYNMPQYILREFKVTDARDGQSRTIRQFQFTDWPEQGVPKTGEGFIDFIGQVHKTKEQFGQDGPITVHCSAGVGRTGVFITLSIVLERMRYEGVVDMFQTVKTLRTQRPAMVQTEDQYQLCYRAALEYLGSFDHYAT
Conditions: not given
`COc1cc2ccncc2c(O)c1Cc1c(O)cc(O)c2c1[C@@H](C)OC2` [Compound 9, Puniceusine I] registered an IC50 above 200 µM.
Regarding `CCC(=O)c1c(C)c(O)c(Cc2c(OC)cc3ccncc3c2O)c(O)c1O` [Compound 10, Puniceusine J], the IC50 is 100 µM.
Turning to `COc1cc2ccncc2c(O)c1Cc1c(O)c(OC)c2c(c1O)C(=O)O[C@H]2[C@@H](C)O` [Compound 11, Puniceusine K], the 50% inhibitory concentration (IC50) was above 200 µM.
With `CCc1cc(O)c(Cc2c(OC)cc3ccncc3c2O)c(=O)o1` [Compound 12, Puniceusine L], half-maximal inhibition (IC50) required 150 µM.
Consider `CCc1oc(=O)c(Cc2c(OC)cc3ccncc3c2O)c(O)c1C` [Compound 13, Puniceusine M], for which the concentration for half-maximal inhibition (IC50) amounted to 32.6 µM.
Regarding `CCCCC(CC)COC(=O)CC[n+]1ccc2cc(OC)c(C)c(O)c2c1` (stereo not drawn) [Compound 14, Puniceusine N], the IC50 was above 200 µM.

For a further data set, the system named is Escherichia coli. Put plainly: Antibacterial 2-fold dilution assay, E. coli. The conditions noted are these: 12 h, read-out: MIC, Escherichia coli.
Description: (§1) Antibacterial activities of 1–14 against E. coli, S. aureus and MRSA were evaluated using the 2-fold dilution assay in 96-microwell plates. Briefly, all the indicator bacteria were cultured on Luria−Bertani (LB) agar plates at 37 °C for 12 h, and then a single colony was picked into LB liquid medium and cultivated on a rotary shaker at 37 °C for 12 h. Then, the bacterial suspensions with LB medium were diluted until the difference of the OD600 values between the bacterial suspensions and the medium was 0.01~0.02. […] The 96-well plates were incubated at 37 °C for 12 h. MIC value was determined as the lowest concentration with no visible bacterial growth. Ampicillin was used as the positive control and DMSO as the negative control. All experiments were performed three times.
On to `CCCCC(CC)COC(=O)CC[n+]1ccc2cc(OC)c(C)c(O)c2c1` (stereo not drawn) [Compound 14, Puniceusine N], for which the MIC was 100 µg/mL.

The test system of the next data set is methicillin-resistant S. aureus (MRSA). The data set is described as follows: Antibacterial 2-fold dilution assay, MRSA. The conditions noted are these: Staphylococcus aureus, 12 h, read-out: MIC, methicillin-resistant S. aureus (MRSA).
Description: as §1
As to `CCCCC(CC)COC(=O)CC[n+]1ccc2cc(OC)c(C)c(O)c2c1` (stereo not drawn) [Compound 14, Puniceusine N], the MIC came to 100 µg/mL.

A further data set has as its system Staphylococcus aureus. The data set is described as follows: Antibacterial 2-fold dilution assay, S. aureus. The conditions noted are these: 12 h, read-out: MIC, Staphylococcus aureus.
Description: as §1
For `CCCCC(CC)COC(=O)CC[n+]1ccc2cc(OC)c(C)c(O)c2c1` (stereo not drawn) [Compound 14, Puniceusine N], the MIC amounted to 100 µg/mL.

Source of the values: PMC8781450, “Isoquinoline Alkaloids as Protein Tyrosine Phosphatase Inhibitors from a Deep-Sea-Derived Fungus Aspergillus puniceus” (Marine Drugs, 2022).
